Activity calls are given as the source filed them. No cut-off for these calls is given here.
Molecular target: T1, Tyrosine-protein phosphatase non-receptor type 22 (Homo sapiens) (UniProt Q9Y2R2)
T1 sequence (whole entry): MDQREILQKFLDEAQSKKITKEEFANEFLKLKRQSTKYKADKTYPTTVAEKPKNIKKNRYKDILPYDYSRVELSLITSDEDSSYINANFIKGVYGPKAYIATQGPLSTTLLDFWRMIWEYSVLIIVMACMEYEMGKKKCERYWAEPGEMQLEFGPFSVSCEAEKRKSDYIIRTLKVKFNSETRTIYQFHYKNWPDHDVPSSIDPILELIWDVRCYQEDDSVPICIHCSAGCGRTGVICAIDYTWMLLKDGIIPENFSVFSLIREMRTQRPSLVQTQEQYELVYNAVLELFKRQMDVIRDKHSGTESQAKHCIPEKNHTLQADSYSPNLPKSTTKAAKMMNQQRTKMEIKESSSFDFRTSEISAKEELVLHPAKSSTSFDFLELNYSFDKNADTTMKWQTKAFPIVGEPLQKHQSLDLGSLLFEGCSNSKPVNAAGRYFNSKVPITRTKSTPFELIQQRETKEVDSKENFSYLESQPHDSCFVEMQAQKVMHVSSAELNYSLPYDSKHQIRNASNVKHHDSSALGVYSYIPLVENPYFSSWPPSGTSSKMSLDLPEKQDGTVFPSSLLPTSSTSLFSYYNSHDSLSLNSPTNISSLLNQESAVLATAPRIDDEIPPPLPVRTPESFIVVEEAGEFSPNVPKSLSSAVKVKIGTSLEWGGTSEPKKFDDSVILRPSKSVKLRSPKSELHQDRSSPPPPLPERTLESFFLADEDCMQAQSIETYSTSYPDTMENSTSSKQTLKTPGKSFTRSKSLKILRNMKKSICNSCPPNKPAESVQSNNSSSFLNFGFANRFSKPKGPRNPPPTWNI
Assay: Reversible binding affinity to N-terminal His-tagged LYP catalytic domain (1 to 294 residues) (unknown origin) expressed in Escherichia coli BL21 (DE3) cells using pNPP as substrate incubated for 10 to 90 mins by absorbance based assay
Conditions: time 10-90 min

Activity: Active
Compound: O=C(O)c1cc2cc(N(Cc3ccc(OCc4ccccc4)cc3)S(=O)(=O)c3ccc(-c4ccccc4)cc3)ccc2o1

From ChEMBL document CHEMBL5620412, “Discovery of benzofuran-2-carboxylic acid derivatives as lymphoid tyrosine phosphatase (LYP) inhibitors for cancer immunotherapy” (Eur J Med Chem, 2023)
